Measured values published in PubChem BioAssay AID743319 (Broad Institute, 2014).
Calls of active or inactive are those of the source.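 How the source made its calls: active means fitted curve reaches 200% activation at or below the highest valid dose tested for that compound; inconclusive means flat fit between 30 and 70% activation, or unreliable fit; inactive means the rest.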

The compounds below were run against Endoplasmic reticulum aminopeptidase 2 (Homo sapiens) (UniProt Q6P179) (assay: ERAP2 activation by compounds, dose response, selectivity assay for selective ERAP1 modulator project, biochemical, fluorescence plate reader, cherry-picked samples (AID 743319)). Conditions: recombinant ERAP2, Arg-AMC cleavage fluorescence, 1 h.
Chain of Endoplasmic reticulum aminopeptidase 2 (Homo sapiens) (Q6P179 whole entry, looked up): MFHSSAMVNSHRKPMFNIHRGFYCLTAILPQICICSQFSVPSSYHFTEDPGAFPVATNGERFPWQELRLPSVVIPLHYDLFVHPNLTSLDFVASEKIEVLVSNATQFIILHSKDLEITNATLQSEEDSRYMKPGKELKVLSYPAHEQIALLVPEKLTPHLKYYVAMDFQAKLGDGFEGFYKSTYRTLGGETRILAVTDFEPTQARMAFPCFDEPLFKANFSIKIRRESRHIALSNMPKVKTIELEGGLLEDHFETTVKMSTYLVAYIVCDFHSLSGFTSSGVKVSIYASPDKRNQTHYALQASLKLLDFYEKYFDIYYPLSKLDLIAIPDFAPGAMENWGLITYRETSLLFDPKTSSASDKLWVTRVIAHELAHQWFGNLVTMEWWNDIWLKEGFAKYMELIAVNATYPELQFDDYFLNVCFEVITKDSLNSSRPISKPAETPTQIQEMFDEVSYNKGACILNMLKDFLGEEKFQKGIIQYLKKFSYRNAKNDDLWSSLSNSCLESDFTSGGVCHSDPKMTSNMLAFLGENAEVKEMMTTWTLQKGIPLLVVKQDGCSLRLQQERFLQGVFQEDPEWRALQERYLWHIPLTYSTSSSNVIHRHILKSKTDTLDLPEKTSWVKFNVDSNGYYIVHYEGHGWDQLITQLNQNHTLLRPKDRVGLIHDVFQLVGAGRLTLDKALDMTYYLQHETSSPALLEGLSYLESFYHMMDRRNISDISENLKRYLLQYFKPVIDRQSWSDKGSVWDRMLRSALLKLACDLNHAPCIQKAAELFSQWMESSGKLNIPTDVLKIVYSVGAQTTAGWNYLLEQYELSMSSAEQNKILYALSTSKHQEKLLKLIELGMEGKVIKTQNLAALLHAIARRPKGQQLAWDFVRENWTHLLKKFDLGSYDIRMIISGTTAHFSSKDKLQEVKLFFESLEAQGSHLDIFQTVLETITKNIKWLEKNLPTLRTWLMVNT
With `CCC(=O)N1[C@@H]2c3ccc(/C=C/c4ccccc4)c(=O)n3C[C@H]1[C@H](CO)[C@H]2C(=O)N(C)C` the AC200 was 1690 nM. Compound `N#Cc1c(N)n(CCNC(=O)c2ccccc2)c2nc3ccccc3nc12` has an AC200 of 4630 nM. `COCCCn1c(C(=O)N2CCOCC2)cc2c(=O)n3ccccc3nc21` showed an AC200 of 6360 nM. `C/C(=N\NC(=O)CC#N)c1cc2ccc(O)cc2oc1=O` showed an AC200 of 2300 nM. `COc1cc2ccc(=O)oc2cc1O` was tested, and the AC200 was 678 nM. With `CCc1c(C)c2cc(Cl)c(O)c(CN(CC)CC)c2oc1=O` the AC200 was 1170 nM. In the case of `O=c1oc2cc(O)ccc2cc1S(=O)(=O)c1ccccc1`, the AC200 is reported as 592 nM. For `CN1[C@@H]2Cn3c(ccc(/C=C/c4ccccc4)c3=O)[C@H]1[C@@H](C(=O)NC1CCCC1)[C@@H]2CO`, the AC200 was 1900 nM. `CN(C)Cc1c(O)ccc2cc(-c3nc4ccccc4n3C)c(=O)oc12` was tested, and the AC200 was 445 nM. In the case of `CCCCc1cc(=O)oc2cc(O)ccc12`, the AC200 is reported as 3980 nM. `Cc1c(C)c2ccc(O)c(CN3CCN(C)CC3)c2oc1=O` showed an AC200 of 3430 nM. With `Cc1cc(=O)oc2cc(OCC(=O)N3CCN(C(C)c4ccccc4)CC3)c(Cl)cc12` (configuration not stated) the AC200 was 3960 nM. In the case of `COCC(=O)N1[C@@H]2Cn3c(ccc(/C=C/c4ccccc4)c3=O)[C@H]1[C@@H](C(=O)N1CCOCC1)[C@@H]2CO`, the AC200 is reported as 1550 nM. With `CCNC(=O)[C@H]1[C@H](CO)[C@H]2Cn3c(ccc(/C=C/c4ccccc4)c3=O)[C@@H]1N2C(=O)C1CCCC1` the AC200 was 1830 nM. `CCN1CCN(Cc2c(O)ccc3c(C)cc(=O)oc23)CC1` showed an AC200 of 3230 nM. For `O=C(NCC1CC1)[C@H]1[C@H](CO)[C@H]2Cn3c(ccc(/C=C/c4ccccc4)c3=O)[C@@H]1N2C(=O)C1CC1`, the AC200 was 1770 nM. Work on `O=c1cc(CN2CCOCC2)c2cc(Cl)c(O)cc2o1` yielded an AC200 of 2510 nM. Compound `COc1ccc(-c2cc3ccc(O)cc3oc2=O)cc1OC` has an AC200 of 1880 nM. In the case of `COC(=O)[C@H]1[C@H](CO)[C@H]2Cn3c(ccc(/C=C/c4ccccc4)c3=O)[C@@H]1N2C(=O)C1CCC1`, the AC200 is reported as 1600 nM. For `C[C@@H]1CCCCO[C@@H](CN(C)C(=O)CCC(F)(F)F)[C@@H](C)CN([C@@H](C)CO)C(=O)c2cc(NS(=O)(=O)c3ccc(Cl)cc3)ccc2O1`, the AC200 was > 10000 nM (inactive). `CCN(CC)Cc1c(O)c(Cl)cc2c(C)cc(=O)oc12` was tested, and the AC200 was 1240 nM. For `Cc1ccc2nc3c(cc(C(=O)NCc4ccccc4)c(=N)n3CCCn3ccnc3)c(=O)n2c1`, the AC200 was > 11000 nM (inactive). `CC(=O)Oc1cc2oc(=O)cc(C)c2cc1Cl` gave an AC200 of 1100 nM. With `Cc1ccc(-c2cc(C(=O)N3CCCC3)c3ccccc3n2)s1` the AC200 was > 11000 nM (inactive). `Cc1cc(=O)oc2c(CN3CCCCC3)c(O)ccc12` gave an AC200 of 1920 nM. Work on `O=c1ccc2cc(O[C@@H]3O[C@@H](CO)[C@H](O)[C@@H](O)[C@@H]3O)c(O)cc2o1` yielded an AC200 of 744 nM. Work on `O=c1cc(CN2CCN(Cc3ccccc3)CC2)c2ccc(O)cc2o1` yielded an AC200 of 3540 nM. Work on `CCc1cc(=O)oc2c(CN3CCN(C)CC3)c(O)ccc12` yielded an AC200 of 3170 nM. Work on `CCCN1[C@@H]2c3ccc(/C=C/c4ccccc4)c(=O)n3C[C@H]1[C@H](CO)[C@H]2C(=O)NCc1ccccn1` yielded an AC200 of 2190 nM. With `CCN(CC)c1ccc2c(C)c(Cl)c(=O)oc2c1` the AC200 was 1420 nM.

Same assay, conditions: recombinant ERAP2, Arg-AMC cleavage fluorescence, 1 h; at 2.6 µM (top of the series)
`C[C@@H]1CCCCO[C@@H](CN(C)C(=O)CCC(F)(F)F)[C@@H](C)CN([C@@H](C)CO)C(=O)c2cc(NS(=O)(=O)c3ccccc3)ccc2O1` was tested, and the activation was 14.4% (inactive).

Same assay, conditions: recombinant ERAP2, Arg-AMC cleavage fluorescence, 1 h; at 5.6 µM (top of the series)
`COc1ccc(S(=O)(=O)N(C)C[C@@H]2Oc3ncccc3C(=O)N([C@H](C)CO)C[C@@H]2C)cc1` was tested, and the activation was 11.3% (inactive). For `C[C@@H]1CCCCO[C@@H](CN(C)Cc2ccc3c(c2)OCO3)[C@@H](C)CN([C@@H](C)CO)C(=O)c2cc(NS(=O)(=O)c3ccccc3)ccc2O1`, the activation was 12.7% (inactive). With `C[C@@H]1CCCCO[C@@H](CN(C)Cc2ccccc2)[C@@H](C)CN([C@H](C)CO)C(=O)c2cc(NS(=O)(=O)c3cccs3)ccc2O1` the activation was 12.1% (inactive).

Same assay, conditions: recombinant ERAP2, Arg-AMC cleavage fluorescence, 1 h; at 10 µM (top of the series)
With `C[C@@H]1CCCCO[C@@H](CN(C)C)[C@H](C)CN([C@@H](C)CO)C(=O)c2cc(NC(=O)Nc3ccc(C(F)(F)F)cc3)ccc2O1` the activation was 14.3% (inactive). For `CCCN(C)C[C@@H]1OCCCC[C@@H](C)Oc2ccc(NS(=O)(=O)c3c(C)noc3C)cc2C(=O)N([C@H](C)CO)C[C@@H]1C`, the activation was -3.16% (inactive).

Same assay, conditions: recombinant ERAP2, Arg-AMC cleavage fluorescence, 1 h; at 11 µM (top of the series)
For `C[C@H]1CN([C@@H](C)CO)C(=O)c2cccc(NC(=O)Nc3ccc(C(F)(F)F)cc3)c2O[C@@H]1CN(C)CC1CC1`, the activation was -16.1% (inactive). `C[C@@H]1CCCCO[C@@H](CN(C)C)[C@@H](C)CN([C@@H](C)CO)C(=O)c2cc(NS(=O)(=O)c3ccc(F)cc3)ccc2O1` was tested, and the activation was 5.3% (inactive). `C[C@@H]1CCCCO[C@@H](CN(C)Cc2ccc3c(c2)OCO3)[C@@H](C)CN([C@H](C)CO)C(=O)c2cc(NS(=O)(=O)c3cccs3)ccc2O1` was tested, and the activation was 1.03% (inactive). With `CCn1cc(CN2CCCC(C(=O)Nc3ccc(-c4nc5ccccc5[nH]4)cc3)C2)c(C)n1` (configuration not stated) the activation was 4.78% (inactive). In the case of `C[C@@H]1CCCCO[C@H](CN(C)C)[C@H](C)CN([C@H](C)CO)C(=O)c2cc(NS(=O)(=O)c3ccc(Cl)cc3)ccc2O1`, the activation is reported as 16.7% (inactive). `CCCNC(=O)C[C@@H]1CC[C@@H]2[C@H](COC[C@H](O)CN2C(=O)Nc2cccc(Cl)c2)O1` was tested, and the activation was 22.2% (inactive). `COc1ccc(NC(=O)Nc2ccc3c(c2)C(=O)N([C@@H](C)CO)C[C@@H](C)[C@H](CN(C)Cc2ccc(C(=O)O)cc2)OCCCC[C@H](C)O3)cc1` was tested, and the activation was 37.6% (inactive). `COc1ccc(S(=O)(=O)Nc2ccc3c(c2)C(=O)N([C@@H](C)CO)C[C@H](C)[C@H](CN(C)C)OCCCC[C@@H](C)O3)cc1` was tested, and the activation was 5.02% (inactive). For `COc1ccc(NC(=O)Nc2ccc3c(c2)C(=O)N([C@H](C)CO)C[C@@H](C)[C@@H](CN(C)Cc2ccc(C(=O)O)cc2)OCCCC[C@@H](C)O3)cc1`, the activation was 2.96% (inactive). For `O=C(Nc1ccc(C(F)(F)F)cc1)N1[C@@H]2CNC[C@H]1C2c1ccc(-c2ccncc2)cc1` (some centres not stated), the activation was 1.51% (inactive). `COc1ccc(CN(C)C[C@@H]2OCCCC[C@@H](C)Oc3ccc(NS(=O)(=O)c4cccs4)cc3C(=O)N([C@H](C)CO)C[C@@H]2C)cc1` was tested, and the activation was 10.9% (inactive). `C[C@@H]1CCCCO[C@@H](CN(C)Cc2ccccc2)[C@H](C)CN([C@H](C)CO)C(=O)c2cc(NS(=O)(=O)c3cccs3)ccc2O1` was tested, and the activation was 6.39% (inactive). With `Cc1noc(C)c1NC(=O)Nc1ccc2c(c1)C(=O)N([C@H](C)CO)C[C@@H](C)[C@@H](CN(C)Cc1ccc(C(F)(F)F)cc1)OCCCC[C@@H](C)O2` the activation was -2.75% (inactive). `CCCN(C)C[C@@H]1OCCCC[C@@H](C)Oc2ccc(NS(=O)(=O)c3cccs3)cc2C(=O)N([C@H](C)CO)C[C@@H]1C` was tested, and the activation was 11% (inactive). In the case of `COc1ccc(CN(C)C[C@@H]2OCCCC[C@@H](C)Oc3ccc(NS(=O)(=O)c4c(C)noc4C)cc3C(=O)N([C@@H](C)CO)C[C@@H]2C)cc1`, the activation is reported as -1% (inactive). `NC(=NCCc1c[nH]c2ccccc12)NS(=O)(=O)c1cc(F)ccc1F` was tested, and the activation was 9.24% (inactive). For `COc1ccc(CN(C)C[C@@H]2OCCCC[C@@H](C)Oc3ccc(NS(=O)(=O)c4cccs4)cc3C(=O)N([C@H](C)CO)C[C@H]2C)cc1`, the activation was 1.04% (inactive). For `Cc1ccccc1-c1ccc2c(c1)O[C@@H](CN(C)Cc1ccc(C(=O)O)cc1)[C@@H](C)CN([C@@H](C)CO)S2(=O)=O`, the activation was 0.523% (inactive). With `N#Cc1c(N2CCNCC2)nc(-c2ccco2)c2c1CCCC2` the activation was 31.3% (inactive). `COc1ccc(CN(C)C[C@@H]2OCCCC[C@@H](C)Oc3ccc(NS(=O)(=O)c4cccs4)cc3C(=O)N([C@@H](C)CO)C[C@H]2C)cc1` was tested, and the activation was -1.25% (inactive). With `C[C@@H]1CCCCO[C@@H](CN(C)CC2CC2)[C@@H](C)CN([C@H](C)CO)C(=O)c2cc(NS(=O)(=O)c3ccc(Cl)cc3)ccc2O1` the activation was 18.4% (inactive). `COc1ccc(CN(C)C[C@H]2OCCCC[C@@H](C)Oc3ccc(NS(=O)(=O)c4cccs4)cc3C(=O)N([C@@H](C)CO)C[C@@H]2C)cc1` was tested, and the activation was 10.1% (inactive). For `CCN(CCCl)c1cc(CN(C)C)cc(NC(=O)c2ccc(C(=O)Nc3cc(CN(C)C)cc(N(CC)CCCl)c3)cc2)c1`, the activation was -8.9% (inactive). For `COc1cccc(S(=O)(=O)N(C)C[C@@H]2Oc3ncccc3C(=O)N([C@H](C)CO)C[C@@H]2C)c1`, the activation was 4.98% (inactive). For `CO[C@@H]1CN(C)C(=O)c2ccc(NC(=O)Nc3cccc(Cl)c3)cc2OC[C@@H](C)NC[C@H]1C`, the activation was 3.9% (inactive). With `C[C@@H]1CCCCO[C@@H](CN(C)CC2CCCCC2)[C@H](C)CN([C@@H](C)CO)C(=O)c2cc(NC(=O)Nc3ccccc3)ccc2O1` the activation was 12.1% (inactive). For `COc1ccc2c3c([nH]c2c1)[C@H](CO)N(Cc1cc(F)ccc1F)CC31CN(C)C1`, the activation was 11.2% (inactive). With `C[C@@H]1CCCCO[C@@H](CN(C)C)[C@@H](C)CN([C@@H](C)CO)C(=O)c2cc(NS(=O)(=O)c3ccc(Cl)cc3)ccc2O1` the activation was 2.17% (inactive). In the case of `C[C@@H]1CCCCO[C@@H](CN(C)S(C)(=O)=O)[C@@H](C)CN([C@@H](C)CO)C(=O)c2cc(NS(=O)(=O)c3ccc(Cl)cc3)ccc2O1`, the activation is reported as 9.01% (inactive). `CCC(=O)N(C)C[C@@H]1Oc2ncc(C#Cc3ccncc3)cc2C(=O)N([C@@H](C)CO)C[C@@H]1C` was tested, and the activation was -17.3% (inactive). With `Cc1noc(C)c1NC(=O)N(C)C[C@@H]1Oc2c(NC(=O)Nc3ccccc3)cccc2C(=O)N([C@H](C)CO)C[C@@H]1C` the activation was 10.6% (inactive). In the case of `C[C@H](CO)N1C[C@H](C)[C@H](CN(C)CC2CCCCC2)Oc2c(NC(=O)Nc3ccc4c(c3)OCO4)cccc2C1=O`, the activation is reported as -0.254% (inactive). For `C[C@H](CO)N1C[C@H](C)[C@H](CN(C)CC2CCCCC2)Oc2c(NC(=O)Nc3ccc(C(F)(F)F)cc3)cccc2C1=O`, the activation was 11.4% (inactive). For `Cc1cc(=O)oc2c(CN3CCN(C)CC3)c(O)c(Cl)cc12`, the activation was 12% (inactive). `Cc1ccc(S(=O)(=O)Nc2ccc3c(c2)C(=O)N([C@@H](C)CO)C[C@H](C)[C@H](CN(C)C)OCCCC[C@@H](C)O3)cc1` was tested, and the activation was 14.1% (inactive). In the case of `C[C@H]1CN([C@@H](C)CO)C(=O)c2cccc(NC(=O)Nc3ccc4c(c3)OCO4)c2O[C@@H]1CN(C)CC1CC1`, the activation is reported as 12.8% (inactive).
